Data: patent US7241613B1, “Identification of Candida cell surface proteins and their uses” (priority 2002, dated 2007)
≈ marks a conversion by molar mass, not a printed value. Read-outs that look alike come from different tables or passages of the source. Starred links: 1 amine or outer side, 2 acyl side, 3 side chain; linkers in the order of their positions; H or OH if unused. Positions of bridges follow the written chain, without caps; N, C: chain ends. Non-standard residues stand in square brackets, D forms with d. Residues, ends and D or L forms follow the SMILES beside them. *: point of attachment. hTyr(3S-OH,4S-OH,3'-OSO3H) = N[C@H](C(=O)O)[C@H](O)[C@@H](O)c1ccc(O)c(OS(=O)(=O)O)c1; Orn(4R-OH,5R-OH) = O=C([C@H](C[C@@H](O)[C@@H](O)N[*:3])N[*:1])[*:2]; Pro(3S-OH,4S-Me) = C[C@H]1CN[C@H](C(=O)O)[C@H]1O; X1 = CCCCCOc1ccc(-c2cc(-c3ccc(C(=O)*)cc3)no2)cc1; Gln(3R-OH) = NC(=O)C[C@@H](O)[C@H](N)C(=O)O; Hyp = O=C(O)[C@@H]1C[C@@H](O)CN1

Experiments:
C. albicans null mutants = assay: Sensitivities to calcofluor white, SDS or NaCl (spotting cells on YPD plates); type: cell-based, Candida albicans; conditions: for Calcofluor white (CW) sensitivity: 3-25 μg/ml CW; for Calcofluor white (CW) sensitivity / NaCl sensitivity: YPD plates, 37° C.; for NaCl sensitivity: 1-3 M NaCl
Method: To investigate the effect of gene disruption on cell wall integrity and remodeling, we tested the sensitivity of all csf null mutants to calcofluor white (CW; Fluorescent Brightener 28-Sigma), SDS or NaCl by spotting cells on plates. Exponential cultures were harvested and adjusted to an OD600 of 0.24. 2.5 μl of samples plus three to four tenfold serial dilutions were deposited on the surface of YPD plates containing increasing concentrations of the compound: 3-25 μg/ml CW, 1-3 M NaCl, 0.01-0.5% SDS. […]
We further characterized the mutants by determining their susceptibility to calcofluor white, SDS and NaCl. The first column contains the name of the strains.
To go further in the analysis, we decided to test cells for their ability to respond to hyperosmotic stresses that require cell wall remodeling and integrity.

[1] = system: C. albicans csf null mutants, clinical isolate and parental strain; assay: Antifungal susceptibility assay (MIC, NCCLS M27A); type: cell-based, Candida albicans; conditions: all isolates, RPMI 1640, 35° C., 48 hours
Method: Assays were performed at the Center for Medical Mycology, University Hospitals of Cleveland to investigate whether the csf null mutants show a higher susceptibility to antifungals when compared to wild-type. The minimum inhibitory concentrations (MIC) of three antifungal agents, amphotericin B, fluconazole and micafungin, against each fungal isolate were determined according to the NCCLS M27A standard for susceptibility testing of yeasts. […] The MIC endpoint was defined as the lowest concentration that inhibits 80% of fungal growth as compared to the growth control, for fluconazole and micafungin, and 100% inhibition for amphotericin B.
In order to investigate more extensively the effects induced by the loss of the targeted genes on the cell wall (e.g. cell wall permeability), we tested whether the mutant strains were more susceptible to antifungal drugs. Three different antifungal agents were tested at Cleaveland: one polyene (Amphotericin B; a compound that binds to ergosterols and increases membrane permeability), one azole (Fluconazole; a compound that interferes with the ergosterol biosynthesis pathway) and one echinochandin (Micafungin; a compound that inhibits the β-glucan synthetase). No differences in MIC were detected. The MIC of amphotericin B against all isolates, including the clinical isolate and parental strain, was 0.5-1 μg/ml.

[2] = system: Sap2p, Sap1p, Sap1p and Sap1p; conditions: in micromolar concentrations; cited from earlier work
hsp90 = hsp90 (Candida albicans, UniProt P46598); conditions: first stage of double-blind Phase II trial, systemic candidiasis; cited from earlier work
Chain of hsp90 (P46598 whole entry): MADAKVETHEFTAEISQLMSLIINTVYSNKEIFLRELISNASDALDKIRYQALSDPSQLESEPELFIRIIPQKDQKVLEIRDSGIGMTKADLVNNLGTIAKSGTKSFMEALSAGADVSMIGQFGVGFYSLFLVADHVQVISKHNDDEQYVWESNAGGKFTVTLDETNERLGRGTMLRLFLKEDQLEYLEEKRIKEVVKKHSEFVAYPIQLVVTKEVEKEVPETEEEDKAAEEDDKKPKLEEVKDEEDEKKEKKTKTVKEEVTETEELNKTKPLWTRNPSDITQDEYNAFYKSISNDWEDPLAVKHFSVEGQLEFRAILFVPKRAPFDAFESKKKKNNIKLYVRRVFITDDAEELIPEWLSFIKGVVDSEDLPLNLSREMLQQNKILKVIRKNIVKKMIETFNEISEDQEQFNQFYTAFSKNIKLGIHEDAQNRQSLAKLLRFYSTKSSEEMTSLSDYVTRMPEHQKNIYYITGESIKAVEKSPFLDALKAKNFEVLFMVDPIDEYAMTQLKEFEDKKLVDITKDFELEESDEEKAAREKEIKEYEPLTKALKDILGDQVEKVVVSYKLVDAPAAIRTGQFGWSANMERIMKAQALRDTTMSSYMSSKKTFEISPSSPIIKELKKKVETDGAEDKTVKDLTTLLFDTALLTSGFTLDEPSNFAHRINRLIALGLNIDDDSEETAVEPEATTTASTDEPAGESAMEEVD

[3] = 6.1231 null mutant vs wild type
[4] = 6.1639 null mutant vs wild type
[5] = 6.3873 null mutant vs wild type
[6] = Candida albicans, endpoint 80% inhibition of fungal growth, read-out: MIC

## O=S(=O)(O)c1cc(Nc2nc(Nc3ccccc3)nc(N(CCO)CCO)n2)ccc1/C=C/c1ccc(Nc2nc(Nc3ccccc3)nc(N(CCO)CCO)n2)cc1S(=O)(=O)O [Calcofluor white, calcofluor white]
C. albicans null mutants; [3]
  Calcofluor white (CW) sensitivity: +++
C. albicans null mutants; 6.1231Δ, 25 μg/ml calcofluor
  growth in the presence of calcofluor: no more cells were growing
C. albicans null mutants; [4]
  Calcofluor white (CW) sensitivity: +
C. albicans null mutants; [5]
  Calcofluor white (CW) sensitivity: ++
C. albicans null mutants; als1 null mutant vs wild type
  Calcofluor white (CW) sensitivity: +
C. albicans null mutants; hwp1 null mutant vs wild type
  Calcofluor white (CW) sensitivity: +
C. albicans null mutants; mp65 null mutant vs wild type
  Calcofluor white (CW) sensitivity: +++
C. albicans null mutants; mp65Δ
  sensitivity to calcofluor white: highly sensitive
C. albicans null mutants; pra1 null mutant vs wild type
  Calcofluor white (CW) sensitivity: ++
C. albicans null mutants; sap9 null mutant vs wild type
  Calcofluor white (CW) sensitivity: +

## [Cl-].[Na+] [NaCl]
C. albicans null mutants; [3]
  NaCl sensitivity: +
C. albicans null mutants; [4]
  NaCl sensitivity: +
C. albicans null mutants; [5]
  NaCl sensitivity: +
C. albicans null mutants; all six csf mutants, increasing NaCl concentration (0-3M), 24 h at 37° C.
  sensitivity to NaCl (hyperosmotic stress): as sensitive as the parental strain
C. albicans null mutants; als1 null mutant vs wild type
  NaCl sensitivity: +
C. albicans null mutants; hwp1 null mutant vs wild type
  NaCl sensitivity: +
C. albicans null mutants; mp65 null mutant vs wild type
  NaCl sensitivity: +
C. albicans null mutants; pra1 null mutant vs wild type
  NaCl sensitivity: +
C. albicans null mutants; sap9 null mutant vs wild type
  NaCl sensitivity: +

## CCCCCCCCCCCCOS(=O)(=O)[O-].[Na+] [SDS, sodium dodecyl sulfate]
C. albicans null mutants; mp65Δ, 6.1639Δ and sap9Δ, increasing concentrations of SDS (0-0.5%), 24 h at 37° C.
  sensitivity to SDS: hypersensitive

## C[C@@H]1[C@H](O)[C@@H](C)/C=C/C=C/C=C/C=C/C=C/C=C/C=C/[C@H](O[C@@H]2O[C@H](C)[C@@H](O)[C@H](N)[C@@H]2O)C[C@@H]2O[C@](O)(C[C@@H](O)C[C@@H](O)[C@H](O)CC[C@@H](O)C[C@@H](O)CC(=O)O[C@H]1C)C[C@H](O)[C@H]2C(=O)O [amphotericin B]
[1]; including the clinical isolate and parental strain, endpoint 100% inhibition
  MIC: 0.5 to 1 µg/mL

## OC(Cn1cncn1)(Cn1cncn1)c1ccc(F)cc1F [fluconazole]
[1]; [6]
  MIC: 0.25 µg/mL (≈ 0.816 µM)

## CCCCCOc1ccc(-c2cc(-c3ccc(C(=O)N[C@H]4C[C@@H](O)[C@@H](O)NC(=O)[C@@H]5[C@@H](O)[C@@H](C)CN5C(=O)[C@H]([C@H](O)CC(N)=O)NC(=O)[C@H]([C@H](O)[C@@H](O)c5ccc(O)c(OS(=O)(=O)O)c5)NC(=O)[C@@H]5C[C@@H](O)CN5C(=O)[C@H]([C@@H](C)O)NC4=O)cc3)no2)cc1 [micafungin] (X1-[Orn(4R-OH,5R-OH)]T[Hyp][hTyr(3S-OH,4S-OH,3'-OSO3H)][Gln(3R-OH)][Pro(3S-OH,4S-Me)]; lactam 1-C)
[1]; [6]
  MIC: 0.008 µg/mL (≈ 0.0063 µM)

## CC(C)c1nc(CN(C)C(=O)N[C@H](C(=O)N[C@@H](Cc2ccccc2)C[C@H](O)[C@H](Cc2ccccc2)NC(=O)OCc2cncs2)C(C)C)cs1 [ritonavir]
[2]
  inhibition of the activity of Sap2p, Sap1p, Sap1p and Sap1p: inhibit the activity

## CC(C)(C)NC(=O)[C@@H]1C[C@@H]2CCCC[C@@H]2CN1C[C@@H](O)[C@H](Cc1ccccc1)NC(=O)[C@H](CC(N)=O)NC(=O)c1ccc2ccccc2n1 [saquinavir]
[2]
  inhibition of the activity of Sap2p, Sap1p, Sap1p and Sap1p: inhibit the activity

B1: Mycograb: monoclonal antibodies directed against hsp90 in clinical trials for systemic candidiasis (antibody, chains of the INN, looked up, V domains shown)
VH: EVQLVESGAEVKKPGESLRISCKGSGCIISSYWISWVRQMPGKGLEWMGKIDPGDSYINYSPSFQGHVTISADKSINTAYLQWNSLKASDTAMYYCARGGRDFGDSFDYWGQGTLVTVSS
VL: DVVMTQSPSFLSAFVGDRITITCRASSGISRYLAWYQQAPGKAPKLLIYAASTLQTGVPSRFSGSGSGTEFTLTINSLQPEDFATYYCQHLNSYPLTFGGGTKVDIK
modifications: scFv
notes: monoclonal antibodies directed against hsp90 in clinical trials for systemic candidiasis
hsp90
  serious adverse events: No serious adverse events
